According to paper doi:10.1101/2023.02.24.529844v1, “Characterization of new highly selective pyrazolo[4,3-d]pyrimidine inhibitor of CDK7” (biorxiv, 2023):

Columns and labels:
[1] = target: T1, CDK7 (Homo sapiens, UniProt P50613); assay: [gamma-33P]ATP radiometric kinase assay; assay type: biochemical
T1 construct: recombinant CDK7; with Cyclin-H

[2] = target: CDK2/cyclin A (Homo sapiens, UniProt P24941); assay: biochemical; parameters: radiometric kinase inhibition assay with [gamma-33P]ATP, P-81 phosphocellulose spotting, digital image analysis
Method: (§1) The kinase inhibition assay was performed as previously described. Briefly, all tested kinases were incubated with specific substrates in the presence of ATP, 0.05 µCi [γ^33P]ATP and the LGR6768 compound in a final volume of 10 µl. The reaction was stopped by adding 3% aq. H3PO4. Aliquots were spotted onto P-81 phosphocellulose (Whatman), washed three times with 0.5% aq. H3PO4 and air-dried. Kinase inhibition was quantified using a FLA-7000 digital image analyser (Fujifilm). The drug doses required to decrease kinase activities by 50%, represented by the IC50 values, were determined from dose[…]response curves. The selectivity profiling of LGR6768 was performed on a panel of 50 kinases, including known off-targets of other structurally related pyrazolo[4,3-d]pyrimidines or isosteres, such as roscovitine or CR8 [31]. Given the high structural similarity within the CDK family, we also evaluated LGR6768 against 14 CDKs to assess its selectivity across them. The compound was applied at a 1 µM concentration, and the experiment confirmed selective reduction of the enzymatic activity of CDK7 to 4%.

[3] = target: CDK4/cyclin D1 (Homo sapiens, UniProt P11802); assay: biochemical; parameters: radiometric kinase inhibition assay with [gamma-33P]ATP, P-81 phosphocellulose spotting, digital image analysis
Method: as §1

[4] = target: CDK1/cyclin B (Homo sapiens, UniProt P06493); assay: biochemical; parameters: radiometric kinase inhibition assay with [gamma-33P]ATP, P-81 phosphocellulose spotting, digital image analysis
Method: as §1

[5] = target: CDK5/p25 (Homo sapiens, UniProt Q00535); assay: biochemical; parameters: radiometric kinase inhibition assay with [gamma-33P]ATP, P-81 phosphocellulose spotting, digital image analysis
Method: as §1

[6] = target: CDK9/cyclin T (Homo sapiens, UniProt P50750); assay: biochemical; parameters: radiometric kinase inhibition assay with [gamma-33P]ATP, P-81 phosphocellulose spotting, digital image analysis
Method: as §1

[7] = target: CDK2/cyclin E (Homo sapiens, UniProt P24941); assay: biochemical; parameters: radiometric kinase inhibition assay with [gamma-33P]ATP, P-81 phosphocellulose spotting, digital image analysis
Method: as §1

[8] = target: T2, CDK16 (Homo sapiens, UniProt Q00536); assay: Eurofins kinase selectivity panel; assay type: biochemical; conditions: read-out: residual activity at 1 μM
T2 construct: Eurofins Discovery kinase panel

[9] = target: T3, CK1δ (Homo sapiens, UniProt P48730); assay: Eurofins kinase selectivity panel; assay type: biochemical; conditions: read-out: residual activity at 1 μM
T3 construct: gene CSNK1D; Eurofins Discovery kinase panel
T3 sequence (P48730 whole entry): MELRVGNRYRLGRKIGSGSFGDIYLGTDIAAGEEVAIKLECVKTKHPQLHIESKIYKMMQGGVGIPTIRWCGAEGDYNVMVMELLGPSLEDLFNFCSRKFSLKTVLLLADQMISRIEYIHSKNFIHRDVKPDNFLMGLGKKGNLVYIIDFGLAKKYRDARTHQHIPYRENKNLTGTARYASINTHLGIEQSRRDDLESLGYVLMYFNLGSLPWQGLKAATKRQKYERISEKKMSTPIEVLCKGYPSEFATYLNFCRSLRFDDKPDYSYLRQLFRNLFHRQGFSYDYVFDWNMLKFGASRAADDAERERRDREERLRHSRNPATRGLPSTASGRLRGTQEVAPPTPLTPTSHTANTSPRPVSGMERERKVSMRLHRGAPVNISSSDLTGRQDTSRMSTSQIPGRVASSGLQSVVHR

Sequence of CDK9/cyclin T (P50750 whole entry): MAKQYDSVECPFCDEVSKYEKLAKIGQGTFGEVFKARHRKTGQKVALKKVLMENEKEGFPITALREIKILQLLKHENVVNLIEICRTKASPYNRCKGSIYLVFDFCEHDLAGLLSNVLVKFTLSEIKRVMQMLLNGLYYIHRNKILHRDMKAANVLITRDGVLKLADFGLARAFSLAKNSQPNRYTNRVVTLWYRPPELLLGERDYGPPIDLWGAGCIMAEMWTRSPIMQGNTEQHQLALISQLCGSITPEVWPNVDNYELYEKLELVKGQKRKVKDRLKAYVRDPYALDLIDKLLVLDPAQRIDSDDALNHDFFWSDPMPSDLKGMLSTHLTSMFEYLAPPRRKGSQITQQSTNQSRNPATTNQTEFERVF
Sequence of CDK9/cyclin T (O60563 whole entry partner): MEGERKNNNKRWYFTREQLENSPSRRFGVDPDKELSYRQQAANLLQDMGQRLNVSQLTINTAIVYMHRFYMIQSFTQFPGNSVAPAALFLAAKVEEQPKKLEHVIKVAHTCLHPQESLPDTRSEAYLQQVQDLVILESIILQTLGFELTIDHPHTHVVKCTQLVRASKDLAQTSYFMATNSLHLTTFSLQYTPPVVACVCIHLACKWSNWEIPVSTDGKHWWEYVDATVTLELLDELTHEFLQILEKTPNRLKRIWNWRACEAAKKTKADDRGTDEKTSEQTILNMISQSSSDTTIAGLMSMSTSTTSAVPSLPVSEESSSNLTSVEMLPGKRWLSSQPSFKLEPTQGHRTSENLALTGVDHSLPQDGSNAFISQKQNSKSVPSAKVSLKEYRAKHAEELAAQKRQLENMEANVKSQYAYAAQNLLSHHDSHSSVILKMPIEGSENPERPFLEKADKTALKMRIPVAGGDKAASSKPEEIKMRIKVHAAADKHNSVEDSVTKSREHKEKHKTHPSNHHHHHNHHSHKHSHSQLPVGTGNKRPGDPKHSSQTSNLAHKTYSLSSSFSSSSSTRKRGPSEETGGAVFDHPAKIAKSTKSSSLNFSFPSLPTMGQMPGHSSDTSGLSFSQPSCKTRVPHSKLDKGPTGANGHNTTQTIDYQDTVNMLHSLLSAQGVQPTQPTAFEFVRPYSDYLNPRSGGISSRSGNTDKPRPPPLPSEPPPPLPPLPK
Sequence of CDK4/cyclin D1 (P11802 whole entry): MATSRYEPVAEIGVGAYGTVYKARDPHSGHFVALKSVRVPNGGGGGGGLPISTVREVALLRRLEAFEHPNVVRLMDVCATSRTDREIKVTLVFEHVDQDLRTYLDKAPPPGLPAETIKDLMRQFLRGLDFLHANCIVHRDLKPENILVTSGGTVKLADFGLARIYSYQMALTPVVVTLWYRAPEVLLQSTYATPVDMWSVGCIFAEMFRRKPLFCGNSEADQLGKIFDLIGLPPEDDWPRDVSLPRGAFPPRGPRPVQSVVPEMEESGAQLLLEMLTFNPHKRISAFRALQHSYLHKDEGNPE
Sequence of CDK4/cyclin D1 (P24385 whole entry partner): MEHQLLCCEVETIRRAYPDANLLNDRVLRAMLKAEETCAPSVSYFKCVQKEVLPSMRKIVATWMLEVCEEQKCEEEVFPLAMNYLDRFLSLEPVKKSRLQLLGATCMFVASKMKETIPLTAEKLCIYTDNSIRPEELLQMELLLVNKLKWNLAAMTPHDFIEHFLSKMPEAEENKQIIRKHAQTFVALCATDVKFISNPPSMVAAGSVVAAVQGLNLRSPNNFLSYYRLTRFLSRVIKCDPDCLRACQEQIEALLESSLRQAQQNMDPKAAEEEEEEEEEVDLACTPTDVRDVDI
T1 sequence (P50613 2-346): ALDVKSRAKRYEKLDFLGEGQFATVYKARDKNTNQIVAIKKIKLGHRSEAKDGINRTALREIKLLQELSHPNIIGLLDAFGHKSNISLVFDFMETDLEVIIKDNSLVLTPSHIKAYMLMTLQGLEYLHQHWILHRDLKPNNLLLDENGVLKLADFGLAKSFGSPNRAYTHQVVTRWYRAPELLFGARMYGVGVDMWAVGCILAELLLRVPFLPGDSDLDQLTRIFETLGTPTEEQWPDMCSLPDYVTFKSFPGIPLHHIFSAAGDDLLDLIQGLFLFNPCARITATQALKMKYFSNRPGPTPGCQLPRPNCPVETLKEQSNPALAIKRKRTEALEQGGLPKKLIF
T1 sequence (P51946 whole entry partner): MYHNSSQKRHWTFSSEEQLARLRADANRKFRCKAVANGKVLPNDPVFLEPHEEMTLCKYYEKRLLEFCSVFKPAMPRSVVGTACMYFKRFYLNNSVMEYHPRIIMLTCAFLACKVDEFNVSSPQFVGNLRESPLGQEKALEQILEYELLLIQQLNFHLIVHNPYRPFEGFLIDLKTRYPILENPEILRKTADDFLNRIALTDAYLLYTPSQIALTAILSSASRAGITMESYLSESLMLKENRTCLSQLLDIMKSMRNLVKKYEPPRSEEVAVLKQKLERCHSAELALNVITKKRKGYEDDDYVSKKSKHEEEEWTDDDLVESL
T1 sequence (P51948 whole entry partner): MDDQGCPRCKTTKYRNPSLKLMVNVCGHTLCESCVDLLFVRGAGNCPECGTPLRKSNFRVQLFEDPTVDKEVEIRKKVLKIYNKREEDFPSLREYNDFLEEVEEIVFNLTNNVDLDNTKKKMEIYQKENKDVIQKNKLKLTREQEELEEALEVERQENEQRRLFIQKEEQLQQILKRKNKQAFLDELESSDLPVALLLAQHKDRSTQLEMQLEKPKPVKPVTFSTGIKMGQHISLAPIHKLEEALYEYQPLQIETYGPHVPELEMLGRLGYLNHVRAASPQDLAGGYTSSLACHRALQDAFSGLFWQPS
Sequence of CDK5/p25 (Q00535 whole entry): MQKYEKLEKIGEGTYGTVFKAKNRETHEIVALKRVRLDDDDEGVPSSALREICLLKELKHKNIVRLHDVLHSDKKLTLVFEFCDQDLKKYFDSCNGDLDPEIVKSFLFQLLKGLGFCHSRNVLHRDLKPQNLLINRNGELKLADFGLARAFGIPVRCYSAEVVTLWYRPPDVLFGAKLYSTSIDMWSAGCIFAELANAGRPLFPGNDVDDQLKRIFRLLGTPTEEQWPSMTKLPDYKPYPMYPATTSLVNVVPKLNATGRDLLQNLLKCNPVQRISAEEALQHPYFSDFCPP
Sequence of CDK5/p25 (Q15078 whole entry partner): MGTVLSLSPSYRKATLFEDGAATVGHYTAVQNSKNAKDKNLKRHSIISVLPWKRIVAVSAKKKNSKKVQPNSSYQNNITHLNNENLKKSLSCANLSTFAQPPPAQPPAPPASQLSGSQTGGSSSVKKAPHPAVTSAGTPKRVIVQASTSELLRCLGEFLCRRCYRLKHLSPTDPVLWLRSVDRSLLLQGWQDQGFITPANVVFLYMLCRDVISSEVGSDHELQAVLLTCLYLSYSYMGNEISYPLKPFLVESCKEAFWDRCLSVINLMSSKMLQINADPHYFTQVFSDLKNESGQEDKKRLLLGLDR
Sequence of CDK1/cyclin B (P06493 whole entry): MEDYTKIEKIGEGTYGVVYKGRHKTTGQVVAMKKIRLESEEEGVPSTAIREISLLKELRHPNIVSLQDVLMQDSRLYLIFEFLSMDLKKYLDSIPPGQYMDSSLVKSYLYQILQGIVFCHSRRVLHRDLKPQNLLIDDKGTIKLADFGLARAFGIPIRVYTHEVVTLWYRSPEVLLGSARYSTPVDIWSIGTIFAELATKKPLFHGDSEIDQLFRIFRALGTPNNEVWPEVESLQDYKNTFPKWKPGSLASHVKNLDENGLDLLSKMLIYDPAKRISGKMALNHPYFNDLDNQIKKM
Sequence of CDK1/cyclin B (P14635 whole entry partner): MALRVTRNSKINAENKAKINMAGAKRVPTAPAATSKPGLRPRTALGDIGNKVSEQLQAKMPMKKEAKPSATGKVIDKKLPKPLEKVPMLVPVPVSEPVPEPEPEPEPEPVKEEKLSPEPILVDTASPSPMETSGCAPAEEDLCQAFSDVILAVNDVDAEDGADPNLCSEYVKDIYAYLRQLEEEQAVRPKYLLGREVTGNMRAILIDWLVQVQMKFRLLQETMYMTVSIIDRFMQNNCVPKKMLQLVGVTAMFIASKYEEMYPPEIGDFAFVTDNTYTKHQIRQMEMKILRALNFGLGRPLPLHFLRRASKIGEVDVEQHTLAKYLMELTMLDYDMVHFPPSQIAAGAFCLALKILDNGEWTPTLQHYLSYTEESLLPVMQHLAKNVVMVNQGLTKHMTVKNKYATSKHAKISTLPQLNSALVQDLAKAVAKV
T2 sequence (Q00536 whole entry): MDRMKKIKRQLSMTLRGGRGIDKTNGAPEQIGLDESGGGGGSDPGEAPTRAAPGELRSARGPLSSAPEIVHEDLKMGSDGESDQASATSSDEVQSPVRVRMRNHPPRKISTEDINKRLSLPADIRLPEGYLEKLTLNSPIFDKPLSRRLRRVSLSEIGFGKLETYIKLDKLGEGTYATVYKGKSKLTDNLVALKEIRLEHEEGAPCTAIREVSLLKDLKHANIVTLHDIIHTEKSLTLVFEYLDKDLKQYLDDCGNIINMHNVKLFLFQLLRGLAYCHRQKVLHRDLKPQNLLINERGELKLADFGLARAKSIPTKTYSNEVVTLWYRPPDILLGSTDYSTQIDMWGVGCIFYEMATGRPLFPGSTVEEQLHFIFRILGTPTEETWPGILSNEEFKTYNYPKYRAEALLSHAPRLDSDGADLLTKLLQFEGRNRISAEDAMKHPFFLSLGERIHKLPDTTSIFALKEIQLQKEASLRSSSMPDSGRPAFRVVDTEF

IC50 [1]: 20 nM
IC50 [2]: 500 nM
IC50 [3]: > 20000 nM
IC50 [4]: 5140 nM
IC50 [5]: 1120 nM
IC50 [6]: 6550 nM
IC50 [7]: 250 nM
remaining activity at 1 µM [8]: 19%
remaining activity at 1 µM [9]: 19%
Structure (SMILES): CC(C)c1n[nH]c2c(NCc3ccccc3-c3ccccc3)nc(SC3CCNCC3)nc12 [compound 4, 5-(piperidin-4-yl)thio-3-isopropyl-7-(2-phenylbenzyl)amino-1(2)H-pyrazolo[4,3-d]pyrimidine]
